Marks after values point to notes of the source that are not given here. Peptide text beside a SMILES is read from it.
Columns and labels:
RXR-gamma = target: T1, RXR-gamma (Homo sapiens, UniProt P48443); experiment: Experiment 4B binding to full length RXR-gamma; conditions: 400 ng/well protein; 800 ng/well SA488-labelled peptide, 2 hours
T1 construct: 400 ng/well full length RXR-alpha, RXR-beta, RXR-gamma or PPAR-gamma; purchased Abcam, Cambridge, MA
T1 sequence (P48443 1-463): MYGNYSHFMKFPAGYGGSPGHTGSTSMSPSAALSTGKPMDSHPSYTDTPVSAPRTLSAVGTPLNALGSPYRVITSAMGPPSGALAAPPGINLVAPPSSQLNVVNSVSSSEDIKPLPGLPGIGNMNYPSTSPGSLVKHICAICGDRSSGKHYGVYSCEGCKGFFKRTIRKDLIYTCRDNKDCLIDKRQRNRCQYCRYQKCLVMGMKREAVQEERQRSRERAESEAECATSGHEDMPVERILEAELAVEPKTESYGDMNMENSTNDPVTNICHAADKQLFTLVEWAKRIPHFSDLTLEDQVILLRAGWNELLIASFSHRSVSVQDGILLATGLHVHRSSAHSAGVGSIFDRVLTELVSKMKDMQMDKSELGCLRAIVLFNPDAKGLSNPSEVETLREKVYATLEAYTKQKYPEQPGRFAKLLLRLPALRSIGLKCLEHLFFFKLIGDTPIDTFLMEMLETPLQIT
Experimental: (§1) Experiment 4B. Binding of immodulin peptides to RXR isoforms and domains. 100 ng/well recombinant human RXRa-DBD or RXRa-LBD, or 400 ng/well full length RXR-alpha, RXR-beta, RXR-gamma or PPAR-gamma (Abcam, Cambridge, MA) was adsorbed to wells of a 96-well plate for 60 minutes at room temperature, then blocked with 200 uL 1% BSA in PBS buffer overnight. The plate was washed with PBS and 800 ng/well Streptavidin-Alexa 488 conjugate (SA488)-labelled peptide was added. The plate was incubated for 2 hours at room temperature, washed and counted in a fluorometer (excitation/emission 485/525 nm). Significant binding above background is also shown (**p<0.05). […] When tested against domains of RXR-alpha, these peptides bind the DNA-binding domain (DBD) better than the ligand-binding domain (LBD).

[1] = Ferric iron-binding assay of biotinylated immodulin peptides; conditions: N-terminally biotinylated peptide, 400 ng per well, 60 min room temperature; immX3AVD = 100
Summary of the method: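 N-terminally biotinylated peptides (400 ng/well) were tested for ferric iron binding in two formats: streptavidin-A488 complexes on Fe3+-charged NTA plates, or streptavidin-captured peptide probed with FITC-NTA·Fe3+. Each step was 60 min at room temperature with fluorescence read at 525 nm. Values are normalized to immX3AVD control (100) and averaged across both protocols.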

Nur77 (NR4A1) = target: T2, Nur77 (NR4A1) (Homo sapiens, UniProt P22736); experiment: Experiment 4C binding to full-length Nur77; conditions: 400 ng/well Nur77; 333 ng/well SA488-labelled peptide, 60 min; background subtracted
T2 construct: purchased Abcam Inc, Cambridge, MA
T2 sequence (P22736 whole entry): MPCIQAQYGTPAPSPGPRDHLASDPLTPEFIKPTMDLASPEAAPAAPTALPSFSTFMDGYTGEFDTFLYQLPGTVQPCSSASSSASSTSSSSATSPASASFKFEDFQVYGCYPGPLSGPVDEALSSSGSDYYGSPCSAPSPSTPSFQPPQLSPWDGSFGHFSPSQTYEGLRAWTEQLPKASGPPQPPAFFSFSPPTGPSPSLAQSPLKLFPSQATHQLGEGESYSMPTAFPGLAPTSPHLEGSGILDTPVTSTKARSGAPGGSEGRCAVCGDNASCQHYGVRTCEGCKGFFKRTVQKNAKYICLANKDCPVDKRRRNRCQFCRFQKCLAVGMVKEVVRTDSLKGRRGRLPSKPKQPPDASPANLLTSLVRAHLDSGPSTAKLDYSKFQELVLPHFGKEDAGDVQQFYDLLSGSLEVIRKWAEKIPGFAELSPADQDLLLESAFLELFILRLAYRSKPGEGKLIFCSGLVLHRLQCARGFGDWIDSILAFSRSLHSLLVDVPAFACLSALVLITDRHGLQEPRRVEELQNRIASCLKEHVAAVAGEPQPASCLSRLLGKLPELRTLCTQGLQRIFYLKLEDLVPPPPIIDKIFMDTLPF
Experimental: 400 ng/well recombinant human Nur77 protein (NR4A1) purchased from Abcam Inc, Cambridge, MA, was adsorbed to wells of a 96-well plate for 90 minutes at room temperature, then blocked with 200 uL 1% BSA in PBS buffer overnight. The plate was washed with PBS and then 333 ng/well Streptavidin-Alexa 488 conjugate (SA488)-labelled imm3 or imm4 peptide was added. The plate was incubated for 60 min at room temperature, washed and counted in a standard fluorometer (excitation/emission 485/525 nm). Background (buffer alone) was subtracted.

RXR-beta = target: T3, RXR-beta (Homo sapiens, UniProt P28702); experiment: Experiment 4B binding to full length RXR-beta; conditions: 400 ng/well protein; 800 ng/well SA488-labelled peptide, 2 hours
T3 construct: 400 ng/well full length RXR-alpha, RXR-beta, RXR-gamma or PPAR-gamma; purchased Abcam, Cambridge, MA
T3 sequence (P28702 1-533): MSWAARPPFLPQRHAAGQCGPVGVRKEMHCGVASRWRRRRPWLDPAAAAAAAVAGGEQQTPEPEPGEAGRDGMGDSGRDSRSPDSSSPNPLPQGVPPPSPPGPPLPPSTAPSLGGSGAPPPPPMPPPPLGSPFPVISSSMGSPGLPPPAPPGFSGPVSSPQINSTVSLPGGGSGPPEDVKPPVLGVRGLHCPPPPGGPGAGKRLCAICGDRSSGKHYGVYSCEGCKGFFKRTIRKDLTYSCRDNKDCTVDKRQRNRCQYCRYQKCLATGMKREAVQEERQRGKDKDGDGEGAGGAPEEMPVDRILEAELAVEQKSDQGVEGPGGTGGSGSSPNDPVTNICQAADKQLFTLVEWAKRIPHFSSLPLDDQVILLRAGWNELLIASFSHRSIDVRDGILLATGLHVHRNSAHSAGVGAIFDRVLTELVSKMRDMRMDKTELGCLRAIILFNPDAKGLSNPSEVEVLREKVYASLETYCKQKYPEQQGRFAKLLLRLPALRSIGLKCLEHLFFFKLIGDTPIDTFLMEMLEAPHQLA
Experimental: as §1

RXR-alpha LBD = target: T4, RXR-alpha LBD (Homo sapiens, UniProt P19793); experiment: Experiment 4B binding to RXR-alpha LBD; conditions: 100 ng/well protein; 800 ng/well SA488-labelled peptide, 2 hours
T4 construct: purchased Abcam, Cambridge, MA
T4 sequence (P19793 227-458 limits assumed): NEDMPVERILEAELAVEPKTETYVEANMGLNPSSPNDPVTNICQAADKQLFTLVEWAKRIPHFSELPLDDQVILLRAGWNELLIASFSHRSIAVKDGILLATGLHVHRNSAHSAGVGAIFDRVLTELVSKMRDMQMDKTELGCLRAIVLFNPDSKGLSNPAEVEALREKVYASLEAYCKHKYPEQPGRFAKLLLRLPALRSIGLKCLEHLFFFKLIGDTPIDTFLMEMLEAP
Experimental: as §1

Row | Binding to RXR-gamma relative to imm3 binding (=100) (RXR-gamma) | Ferric iron binding, fluorescence standardized to immX3AVD control peptide (100), Avg ± SD [1] | Binding to Nur77 (NR4A1), normalized to imm3 binding=100 (Nur77 (NR4A1)) | Binding to RXR-beta relative to imm3 binding (=100) (RXR-beta) | Binding to RXR-alpha LBD relative to imm3 binding (=100) (RXR-alpha LBD) | SMILES
1 | 3.6 ± 7.0 | 3.3 ± 1.5** | 0.3 ± 8.9 | 0.3 ± 1.2 | 3.0 ± 1.3 | CC(C)C[C@H](NC(=O)[C@H](C)NC(=O)[C@@H]1CCCN1C(=O)[C@H](Cc1c[nH]cn1)NC(=O)[C@H](CS)NC(=O)[C@H](CCC(N)=O)NC(=O)[C@H](CCCCN)NC(=O)[C@@H]1CCCN1C(=O)[C@H](Cc1c[nH]cn1)NC(=O)[C@H](Cc1ccccc1)NC(=O)[C@H](CC(N)=O)NC(=O)CNC(=O)[C@H](CC(N)=O)NC(=O)[C@@H](N)CCCNC(=N)N)C(=O)N[C@@H](CC(=O)O)C(=O)NCC(=O)N[C@@H](CCC(N)=O)C(=O)N[C@@H](CCCNC(=N)N)C(=O)NCC(=O)N[C@@H](CCCCN)C(=O)N[C@@H](CS)C(=O)N[C@@H](Cc1c[nH]c2ccccc12)C(=O)O [imm4] (H-RNGNFHPKQCHPALDGQRGKCW-OH; N-terminus and C-terminus assumed)
2 | 90.0 ± 19.6** | 71.6 ± 6.6** | – | 4.0 ± 0.8 | 1.8 ± 1.9 | CC[C@H](C)[C@H](NC(=O)CNC(=O)[C@H](CCCNC(=N)N)NC(=O)[C@H](CCCCN)NC(=O)[C@H](CCCNC(=N)N)NC(=O)CNC(=O)[C@H](CCCNC(=N)N)NC(=O)[C@H](CO)NC(=O)[C@@H]1CCCN1C(=O)[C@H](CCCCN)NC(=O)[C@H](CS)NC(=O)[C@H](CCC(N)=O)NC(=O)[C@H](CCCCN)NC(=O)[C@H](CCCNC(=N)N)NC(=O)[C@H](CCCCN)NC(=O)[C@H](Cc1ccc(O)cc1)NC(=O)[C@H](Cc1ccccc1)NC(=O)CNC(=O)[C@H](CCCCN)NC(=O)[C@@H](N)CCCNC(=N)N)C(=O)N[C@@H](CS)C(=O)N[C@@H](Cc1c[nH]c2ccccc12)C(=O)O [imm5] (H-RKGFYKRKQCKPSRGRKRGICW-OH; N-terminus and C-terminus assumed)
3 | 100.0 ± 16.5** | 66.7 ± 4.7** | 100.0 ± 9.3 | 2.9 ± 1.1 | 0.6 ± 1.5 | N=C(N)NCCC[C@H](NC(=O)CNC(=O)[C@H](CCCCN)NC(=O)[C@H](CO)NC(=O)[C@@H]1CCCN1C(=O)[C@H](CCCNC(=N)N)NC(=O)[C@H](CS)NC(=O)[C@H](CCC(N)=O)NC(=O)[C@H](CCCCN)NC(=O)[C@H](CCCCN)NC(=O)[C@H](CCCCN)NC(=O)[C@H](Cc1ccc(O)cc1)NC(=O)[C@H](Cc1ccccc1)NC(=O)CNC(=O)[C@H](CCCCN)NC(=O)[C@@H](N)CCCCN)C(=O)N[C@@H](CCCCN)C(=O)N[C@@H](CCCNC(=N)N)C(=O)NCC(=O)N[C@@H](Cc1ccccc1)C(=O)N[C@@H](CS)C(=O)N[C@@H](Cc1c[nH]c2ccccc12)C(=O)O [imm3] (H-KKGFYKKKQCRPSKGRKRGFCW-OH; N-terminus and C-terminus assumed)
4 | 42.0 ± 11.6** | 65.9 ± 4.9** | – | 4.7 ± 0.4 | 1.6 ± 1.4 | N=C(N)NCCC[C@H](NC(=O)[C@H](CCCNC(=N)N)NC(=O)[C@H](CCC(N)=O)NC(=O)CNC(=O)[C@H](CCC(N)=O)NC(=O)[C@H](CO)NC(=O)[C@H](CO)NC(=O)[C@H](CCCNC(=N)N)NC(=O)[C@H](CS)NC(=O)[C@H](CCC(N)=O)NC(=O)[C@H](CCCNC(=N)N)NC(=O)[C@H](CCCCN)NC(=O)[C@H](CCCNC(=N)N)NC(=O)[C@H](Cc1ccc(O)cc1)NC(=O)[C@H](Cc1ccccc1)NC(=O)CNC(=O)[C@H](CCCNC(=N)N)NC(=O)[C@@H](N)Cc1c[nH]cn1)C(=O)NCC(=O)N1CCC[C@H]1C(=O)N[C@@H](CS)C(=O)N[C@@H](Cc1c[nH]c2ccccc12)C(=O)O [imm6] (H-HRGFYRKRQCRSSQGQRRGPCW-OH; N-terminus and C-terminus assumed)

Reference: patent US12410220B2, “Modulation of mammalian cell lineage by synthetic immodulins” (priority 2021, dated 2025)
